Measurements reported in patent US11332476B2, “Fms-like tyrosine kinase inhibitors” (3SM BIOTRON INC., priority 2018, dated 2022).

Target: T1, FLT3 (Homo sapiens, UniProt P36888)
T1 sequence (P36888 27-993): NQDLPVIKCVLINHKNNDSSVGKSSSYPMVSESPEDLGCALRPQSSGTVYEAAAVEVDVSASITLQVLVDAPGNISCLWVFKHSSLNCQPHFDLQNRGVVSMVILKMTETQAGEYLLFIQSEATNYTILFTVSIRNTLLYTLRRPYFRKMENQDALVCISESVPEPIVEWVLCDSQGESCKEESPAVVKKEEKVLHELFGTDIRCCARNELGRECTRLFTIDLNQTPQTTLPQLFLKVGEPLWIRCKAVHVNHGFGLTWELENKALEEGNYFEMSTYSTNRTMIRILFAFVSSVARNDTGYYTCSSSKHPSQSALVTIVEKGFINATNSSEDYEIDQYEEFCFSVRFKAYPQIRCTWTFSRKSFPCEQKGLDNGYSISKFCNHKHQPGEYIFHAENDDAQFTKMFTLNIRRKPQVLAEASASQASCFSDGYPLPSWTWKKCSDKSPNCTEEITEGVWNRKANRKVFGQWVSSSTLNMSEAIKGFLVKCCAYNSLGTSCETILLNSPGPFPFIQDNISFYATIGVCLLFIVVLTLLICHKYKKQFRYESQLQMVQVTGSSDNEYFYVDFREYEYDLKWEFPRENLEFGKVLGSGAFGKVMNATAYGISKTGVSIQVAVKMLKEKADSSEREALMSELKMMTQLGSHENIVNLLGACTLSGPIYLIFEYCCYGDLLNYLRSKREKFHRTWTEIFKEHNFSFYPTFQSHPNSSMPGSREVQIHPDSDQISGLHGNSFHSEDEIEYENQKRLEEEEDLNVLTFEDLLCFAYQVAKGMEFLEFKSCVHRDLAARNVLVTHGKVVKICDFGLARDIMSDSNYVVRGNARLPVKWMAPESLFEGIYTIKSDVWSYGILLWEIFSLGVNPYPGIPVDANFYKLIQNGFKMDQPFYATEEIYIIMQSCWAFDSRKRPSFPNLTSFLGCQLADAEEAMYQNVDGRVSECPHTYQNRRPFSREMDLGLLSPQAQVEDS
Assay: Inhibition of FLT3, 33P-ATP kinase assay with filter-binding detection
Type: biochemical
Conditions: 33P-ATP 10 uM, 2 hours at room temperature, filter-binding method
Description: Prepare indicated substrate in freshly prepared Base Reaction Buffer (20 mM Hepes (pH 7.5), 10 mM MgCl2, 1 mM EGTA, 0.02% Brij35, 0.02 mg/ml BSA, 0.1 mM Na3VO4, 2 mM DTT, 1% DMSO). Deliver any required cofactors to the substrate solution above. Deliver indicated kinase into the substrate solution and gently mix. The testing compounds in DMSO was added into the kinase reaction mixture by Acoustic technology (Echo550; nanoliter range) and incubated for 20 minutes at room temperature. Deliver 33P-ATP (specific activity […]) into the reaction mixture to initiate the reaction. Incubate kinase reaction for 2 hours at room temperature. Reactions are spotted onto P81 ion exchange paper. Detect kinase activity by filter-binding method.
Inhibition of FLT3 with 4-Quinolone Derivatives

| SMILES | IC50 |
| --- | --- |
| CCCNc1nc2ccccc2c2c(=O)c3cc(F)ccc3sc12 [compound 7706, 10-fluoro-6-(propylamino)-12H-thiochromeno[2,3-c]quinolin-12-one] | > 1 µM |
| COc1ccc2sc3c(N)nc4ccccc4c3c(=O)c2c1 [compound 7709, 6-Amino-10-methoxy-12H-thiochromeno[2,3-c]quinolin-12-one] | > 1 µM |
| CCCNc1nc2ccccc2c2c(=O)c3cc(OC)ccc3sc12 [compound 7710, 10-methoxy-6-(propylamino)-12H-thiochromeno[2,3-c]quinolin-12-one] | > 1 µM |
| Nc1nc2ccccc2c2c(=O)c3cccc(Cl)c3sc12 [compound 7713, 6-Amino-8-chloro-12H-thiochromeno[2,3-c]quinolin-12-one] | > 1 µM |
| O=c1c2cc(Cl)ccc2sc2c(NCCO)nc3ccccc3c12 [compound 7717, 10-chloro-6-(2-hydroxyethylamino)-12H-thiochromeno[2,3-c]quinolin-12-one] | > 1 µM |
| O=c1c2cc(Cl)ccc2sc2c(OCCO)nc3ccccc3c12 [compound 7718, 10-chloro-6-(2-hydroxyethoxy)-12H-thiochromeno[2,3-c]quinolin-12-one] | > 1 µM |
| O=c1c2cc(Cl)ccc2sc2c(NCCCO)nc3ccccc3c12 [compound 7719, 10-chloro-6-(3-hydroxypropylamino)-12H-thiochromeno[2,3-c]quinolin-12-one] | > 1 µM |
| CN(C)CCCNc1nc2ccccc2c2c(=O)c3cc(Cl)ccc3sc12 [compound 7722, 10-chloro-6-(3-(dimethylamino)propylamino)-12H-thiochromeno[2,3-c]quinolin-12-one] | > 1 µM |
| Nc1nc2ccccc2c2c(=O)c3ccc(Cl)cc3sc12 [compound 7723, 6-Amino-9-chloro-12H-thiochromeno[2,3-c]quinolin-12-one] | > 1 µM |
| Nc1nc2ccccc2c2c(=O)c3c(Cl)cccc3sc12 [compound 7724, 6-Amino-11-chloro-12H-thiochromeno[2,3-c]quinolin-12-one] | > 1 µM |
| CCCNc1nc2ccccc2c2c(=O)c3ccc(Cl)cc3sc12 [compound 7725, 9-chloro-6-(propylamino)-12H-thiochromeno[2,3-c]quinolin-12-one] | > 1 µM |
| O=c1c2cc(F)ccc2sc2c(OCCO)nc3ccccc3c12 [compound 7728, 10-fluoro-6-(2-hydroxyethoxy)-12H-thiochromeno[2,3-c]quinolin-12-one] | > 1 µM |
| O=c1c2cc(F)ccc2sc2c(NCCCO)nc3ccccc3c12 [compound 7729, 10-fluoro-6-(3-hydroxypropylamino)-12H-thiochromeno[2,3-c]quinolin-12-one] | > 1 µM |
| COCCCNc1nc2ccccc2c2c(=O)c3cc(F)ccc3sc12 [compound 7730, 10-fluoro-6-(3-methoxypropylamino)-12H-thiochromeno[2,3-c]quinolin-12-one] | > 1 µM |
| CN(C)CCCNc1nc2ccccc2c2c(=O)c3cc(F)ccc3sc12 [compound 7732, 6-(3-(dimethylamino)propylamino)-10-fluoro-12H-thiochromeno[2,3-c]quinolin-12-one] | > 1 µM |
| COc1ccc2sc3c(NCCO)nc4ccccc4c3c(=O)c2c1 [compound 7733, 6-(2-Hydroxyethylamino)-10-methoxy-12H-thiochromeno[2,3-c]quinolin-12-one] | > 1 µM |
| COc1ccc2sc3c(NCCCN(C)C)nc4ccccc4c3c(=O)c2c1 [compound 7735, 6-(3-(dimethylamino)propylamino)-10-methoxy-12H-thiochromeno[2,3-c]quinolin-12-one] | > 1 µM |
| CCNc1nc2ccccc2c2c(=O)c3cc(Cl)ccc3sc12 [compound 7736, 10-chloro-6-(ethylamino)-12H-thiochromeno[2,3-c]quinolin-12-one] | > 1 µM |
| COc1ccc2sc3c(NCCCO)nc4ccccc4c3c(=O)c2c1 [compound 7742, 10-methoxy-6-(3-hydroxypropylamino)-12H-thiochromeno[2,3-c]quinolin-12-one] | > 1 µM |
| COCCCNc1nc2ccccc2c2c(=O)c3cc(OC)ccc3sc12 [compound 7743, 10-methoxy-6-(3-methoxypropylamino)-12H-thiochromeno[2,3-c]quinolin-12-one] | > 1 µM |
| COCCNc1nc2ccccc2c2c(=O)c3cc(F)ccc3sc12 [compound 7745, 10-fluoro-6-(2-methoxyethylamino)-12H-thiochromeno[2,3-c]quinolin-12-one] | > 1 µM |
| O=c1c2cc(F)ccc2sc2c(N3CCCC3)nc3ccccc3c12 [compound 7747, 10-fluoro-6-(pyrrolidin-1-yl)-12H-thiochromeno[2,3-c]quinolin-12-one] | > 1 µM |

Second part, the compound after the results:

| IC50 | SMILES |
| --- | --- |
| < 0.051 µM | NCCCNc1nc2ccccc2c2c(=O)c3cc(F)ccc3sc12 [compound 7707, 6-(3-aminopropylamino)-10-fluoro-12H-thiochromeno[2,3-c]quinolin-12-one] |
| 0.201 to 0.5 µM | O=c1c2cc(F)ccc2sc2c(NCCCNCCO)nc3ccccc3c12 [compound 7708, 10-fluoro-6-(3-(2-hydroxyethylamino)propylamino)-12H-thiochromeno[2,3-c]quinolin-12-one] |
| 0.051 to 0.2 µM | COc1ccc2sc3c(NCCCN)nc4ccccc4c3c(=O)c2c1 [compound 7711, 6-(3-aminopropylamino)-10-methoxy-12H-thiochromeno[2,3-c]quinolin-12-one] |
| 0.501 to 1 µM | COc1ccc2sc3c(NCCCNCCO)nc4ccccc4c3c(=O)c2c1 [compound 7712, 6-(3-(2-hydroxyethylamino)propylamino)-10-methoxy-12H-thiochromeno[2,3-c]quinolin-12-one] |
| < 0.051 µM | NCCCNc1nc2ccccc2c2c(=O)c3cccc(Cl)c3sc12 [compound 7715, 6-(3-aminopropylamino)-8-chloro-12H-thiochromeno[2,3-c]quinolin-12-one] |
| 0.501 to 1 µM | O=c1c2cccc(Cl)c2sc2c(NCCCNCCO)nc3ccccc3c12 [compound 7716, 8-chloro-6-(3-(2-hydroxyethylamino)propylamino)-12H-thiochromeno[2,3-c]quinolin-12-one] |
| 0.501 to 1 µM | CNCCCNc1nc2ccccc2c2c(=O)c3cc(Cl)ccc3sc12 [compound 7721, 10-chloro-6-(3-(methylamino)propylamino)-12H-thiochromeno[2,3-c]quinolin-12-one] |
| 0.201 to 0.5 µM | CNCCCNc1nc2ccccc2c2c(=O)c3cc(F)ccc3sc12 [compound 7731, 10-fluoro-6-(3-(methylamino)propylamino)-12H-thiochromeno[2,3-c]quinolin-12-one] |
| 0.501 to 1 µM | CNCCCNc1nc2ccccc2c2c(=O)c3cc(OC)ccc3sc12 [compound 7734, 10-methoxy-6-(3-(methylamino)propylamino)-12H-thiochromeno[2,3-c]quinolin-12-one] |
| 0.051 to 0.2 µM | O=c1c2cc(F)ccc2sc2c(N3CCNCC3)nc3ccccc3c12 [compound 7739, 10-fluoro-6-(piperazin-1-yl)-12H-thiochromeno[2,3-c]quinolin-12-one] |
| 0.501 to 1 µM | CN1CCN(c2nc3ccccc3c3c(=O)c4cc(F)ccc4sc23)CC1 [compound 7740, 10-fluoro-6-(4-methylpiperazin-1-yl)-12H-thiochromeno[2,3-c]quinolin-12-one] |
| 0.201 to 0.5 µM | CN(C)CCNc1nc2ccccc2c2c(=O)c3cc(F)ccc3sc12 [compound 7744, 6-(2-(dimethylamino)ethylamino)-10-fluoro-12H-thiochromeno[2,3-c]quinolin-12-one] |
